According to patent US20200206231A1, “TOPICAL PHARMACEUTICAL COMPOSITION, METHOD FOR PRODUCING THE TOPICAL PHARMACEUTICAL COMPOSITION, USE OF TOPICAL PHARMACEUTICAL COMPOSITION AND METHOD FOR TOPICAL TREATMENT OF PSORIASIS, ATOPIC DERMATITIS OR CHRONIC ECZEMA” (BIOLAB SANUS FARMACÊUTICA LTDA., priority 2012, published 2020):

Tests used:
Type in all cases: cell-based
Conditions in all cases: human keratinocytes + LPS, 48 hours, mean ± standard deviation
IL-1 = assay: Production of IL-1 in LPS-stimulated human keratinocyte culture (sandwich ELISA)
Experimental: (§1) the effect of formulation 1 (described in example 1) was evaluated In this study, in the synthesis of inflammatory mediators: IL-1, IL-6, IL-8, IL-10, IL-12, prostaglandin E2 (PGE2), Leukotriene B4 (LBT4), interferon gamma (IFN-gamma) and tumor necrosis factor alpha (TNF-alpha) in a culture of human keratinocytes in basal condition and stimulated with bacterial lipopolysaccharides (LPS), to simulate the inflammatory response.
(§2) Human keratinocytes (Cascade Biologics, USA) were sown in 75 cm^2 bottles (Corning Inc, USA), cultured and expanded in a wet incubator to 37° C. in the presence of CO2, using a specific culture medium. When reaching confluence, cells were seeded in 24 well plates (Nunc, USA) for further incubation with non-toxic dilutions of formulation 1, described in example 1, and for evaluation of proposed mediators.
(§3) The evaluated concentrations were 0.0002; 0.0001; and 0.000025 and 0.00005% (w/v).
(§4) Cells were kept in touch with dilutions of the formulations and LPS (Sigma, USA) for 48 hours for further collection of the supernatant and the cell lysate. As a positive control of production of mediators, the cells were kept in touch only with LPS (Sigma, USA) in the same amount administered along with the formulations (samples), and as a basal control, cells alone were used, without the presence of LPS or formulations.
(§5) Quantification of inflammatory mediators (IL-1, IL-6, IL-8, IL-10, IL-12, IFN-gamma and TNF-alpha) was performed using a kit of enzyme-linked immunosorbent assay (sandwich ELISA) commercially available. And the quantification of PGE2 and LBT4 mediators was performed by an ELISA competitive binding assay. The results were expressed in pg/mL, calculated from the values of references obtained with a standard curve constructed with known concentrations of the mediators of interest (table 2).

TNF-alpha = assay: Production of TNF-alpha in LPS-stimulated human keratinocyte culture (sandwich ELISA)
Experimental: as §1, §2, §4, §5

IL-8 = assay: Production of IL-8 in LPS-stimulated human keratinocyte culture (sandwich ELISA)
Experimental: as §1, §2, §3, §4, §5

IL-12 = assay: Production of IL-12 in LPS-stimulated human keratinocyte culture (sandwich ELISA)
Experimental: as §1, §2, §3, §4, §5

IL-10 = assay: Production of IL-10 in LPS-stimulated human keratinocyte culture (sandwich ELISA)
Experimental: as §1, §2, §3, §4, §5

LTB4 = assay: Production of LTB4 in LPS-stimulated human keratinocyte culture (ELISA competitive binding assay)
Experimental: as §1, §2, §3, §4, §5

In the case of `CC(C)=CCC[C@@](C)(O)[C@H]1CC=C(C)CC1` [Alpha bisabolol, 1-methyl-4-(1,5-dimethyl-1-hydroxy-4(5)-hexenyl)-1-cyclohexene], the “Production of inflammatory mediators: IL-1” value (IL-1; Dilution: 0.00005 (% w/v)) is reported as 313.43 ± 33.30 pg/mL, the “Production of inflammatory mediators: IL-1” value (IL-1; Dilution: 0.0002 (% w/v)) is reported as 354.74 ± 37.03 pg/mL and the “Production of inflammatory mediators: TNF-alpha” value (from here on “Production … TNF-alpha”) (TNF-alpha; Dilution: 0.00005 (% w/v)) is reported as 6.64 ± 0.32 pg/mL. The “Production … TNF-alpha” value (TNF-alpha; Dilution: 0.0002 (% w/v)) was 8.00 ± 1.61 pg/mL, the “Production of inflammatory mediators: IL-8” value (“Production … IL-8” for short) (IL-8; Dilution: 0.00005 (% w/v)) was 64.23 ± 13.00 pg/mL and the “Production … IL-8” value (IL-8; Dilution: 0.0002 (% w/v)) was 28.90 ± 9.58 pg/mL. The “Production of inflammatory mediators: IL-12” value (from here on “Production … IL-12”) (IL-12; Dilution: 0.00005 (% w/v)) was 979.50 ± 35.35 pg/mL, the “Production … IL-12” value (IL-12; Dilution: 0.0002 (% w/v)) was 954.50 ± 70.71 pg/mL and the “Production of inflammatory mediators: IL-10” value (shortened to “Production … IL-10”) (IL-10; Dilution: 0.00005 (% w/v)) was 27.15 ± 2.99 pg/mL. For the same compound, the “Production … IL-10” value (IL-10; Dilution: 0.0002 (% w/v)) was 28.30 ± 1.36 pg/mL, the “Production of inflammatory mediators: LTB4” value (“Production … LTB4” below) (LTB4; Dilution: 0.00005 (% w/v)) was 1083.83 ± 115.59 pg/mL and the “Production … LTB4” value (LTB4; Dilution: 0.0002 (% w/v)) was 648.55 ± 11.09 pg/mL.
With `CN(Cc1cnc2nc(N)nc(N)c2n1)c1ccc(C(=O)N[C@@H](CCC(=O)O)C(=O)O)cc1` [Methotrexate] the “Production of inflammatory mediators: IL-1” value (IL-1; Dilution: 0.00005 (% w/v)) was 291.69 ± 34.42 pg/mL, the “Production of inflammatory mediators: IL-1” value (IL-1; Dilution: 0.0002 (% w/v)) was 187.35 ± 26.22 pg/mL and the “Production … TNF-alpha” value (TNF-alpha; Dilution: 0.0002 (% w/v)) was 4.82 ± 0.32 pg/mL. For the same compound, the “Production … IL-8” value (IL-8; Dilution: 0.00005 (% w/v)) was 39.07 ± 7.53 pg/mL, the “Production … IL-8” value (IL-8; Dilution: 0.0002 (% w/v)) was 19.39 ± 8.00 pg/mL and the “Production … IL-12” value (IL-12; Dilution: 0.00005 (% w/v)) was 1042.00 ± 53.03 pg/mL. For the same compound, the “Production … IL-12” value (IL-12; Dilution: 0.0002 (% w/v)) was 1004.50 ± 70.71 pg/mL, the “Production … IL-10” value (IL-10; Dilution: 0.00005 (% w/v)) was 29.08 ± 1.36 pg/mL and the “Production … IL-10” value (IL-10; Dilution: 0.0002 (% w/v)) was 23.11 ± 1.08 pg/mL. For the same compound, the “Production … LTB4” value (LTB4; Dilution: 0.00005 (% w/v)) was 1282.15 ± 174.81 pg/mL and the “Production … LTB4” value (LTB4; Dilution: 0.0002 (% w/v)) was 543.82 ± 78.75 pg/mL.
